Data from US5622962A, “5α-reductase inhibitors” (priority 1995, dated 1997).
Like-named read-outs stand apart in the source and are kept apart here.

Columns and labels:
[1] = biological target: T1, Type I 5α-Reductase from Human Scalp (Homo sapiens, UniProt P18405); test: Human Type I 5α-reductase assay (conversion of [3H]-testosterone to 5α-reduced metabolites); type: biochemical; details: for percent inhibition of Type I AR: 0.3 μM
T1 construct: Scalp punch biopsies from graft recipient sites were obtained from human hair transplant procedures; from tissue; host or cells: human scalp punch biopsies (hair transplant graft recipient sites), homogenate, 100,000×g pellet
T1 sequence (P18405 1-259): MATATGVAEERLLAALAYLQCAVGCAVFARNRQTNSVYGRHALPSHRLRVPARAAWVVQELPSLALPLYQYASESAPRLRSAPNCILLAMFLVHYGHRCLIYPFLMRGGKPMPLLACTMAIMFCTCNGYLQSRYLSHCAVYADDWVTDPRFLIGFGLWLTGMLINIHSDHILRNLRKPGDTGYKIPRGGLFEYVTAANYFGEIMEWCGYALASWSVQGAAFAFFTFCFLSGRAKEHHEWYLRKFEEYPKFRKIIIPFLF

[2] = biological target: T2, Type II 5α-Reductase from Human Prostate (Homo sapiens, UniProt P31213); test: Human Type II 5α-reductase assay (conversion of [3H]-testosterone to 5α-reduced metabolites); type: biochemical
T2 construct: The same procedure as above was used for preparations using tissue from prostate surgery; from tissue; host or cells: human prostate tissue from surgery, homogenate, 100,000×g pellet
T2 sequence (P31213 1-254): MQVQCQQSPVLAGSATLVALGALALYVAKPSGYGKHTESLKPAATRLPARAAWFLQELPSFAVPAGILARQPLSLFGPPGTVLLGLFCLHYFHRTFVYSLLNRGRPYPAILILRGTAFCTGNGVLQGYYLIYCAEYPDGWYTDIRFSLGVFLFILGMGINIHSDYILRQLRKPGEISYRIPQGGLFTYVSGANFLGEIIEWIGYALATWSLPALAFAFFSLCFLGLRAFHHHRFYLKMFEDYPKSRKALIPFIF

[3] = pH 7.5, 0.3 μM, 50 nM [3H]-testosterone, pH 7.5, 25°, 180 min, compared to control reaction mixtures, read-out: percent inhibition of Type I AR
[4] = pH 5.5, 0.3 μM, sodium acetate pH 5.5, 25°, 30 min, compared to control reaction mixtures, read-out: percent inhibition of Type II AR
[5] = pH 7.5, read-out: percent inhibition of Type I AR
[6] = pH 5.5, read-out: percent inhibition of Type II AR
[7] = 50 nM [3H]-testosterone, pH 7.5, 25°, 180 min, compared to control reaction mixtures

CN1C(=O)CC[C@]2(C)c3ccc(NC(=O)c4ccccc4)cc3CC[C@@H]12 [Example 267, (+)-(4aR)-(10bR)-4,10b-dimethyl-8-benzoylamino-1,2,3,4,4a,-5,6,10b-octahydrobenzo[f]quinolin-3-one]
inhibition at 0.3 µM [1, 3]: 34%
inhibition at 0.3 µM [2, 4]: 51%

CN1C(=O)CC[C@]2(C)c3ccc(NC(=O)c4ccc([N+](=O)[O-])cc4)cc3CC[C@@H]12 [Example 269, (4aR)-(10bR)-4,10b-dimethyl-8-(4-nitrobenzoylamino)-1,2,3,4,4a,5,6,10b-octahydrobenzo[f]quinolin-3-one]
inhibition at 0.3 µM [1, 3]: 8%
inhibition at 0.3 µM [2, 4]: 17%

CN1C(=O)CC[C@]2(C)c3ccc(NC(=O)c4cccc(N)c4)cc3CC[C@@H]12 [Example 270, (4aR)-(10bR)-4,10b-dimethyl-8-(3-aminobenzoylamino)-1,2,3,4,4a,5,6,10b-octahydrobenzo[f]quinolin-3-one]
inhibition at 0.3 µM [1, 3]: 18%
inhibition at 0.3 µM [2, 4]: 13%

CN1C(=O)CC[C@]2(C)c3ccc(-c4cccc(NC(c5ccccc5)c5ccccc5)c4)cc3CC[C@@H]12 [Example 272, (+)-(4aR)-(10bR)-4-methyl-8-(3-diphenylmethylaminophenyl)-10b-methyl-1,2,3,4,4a,5,6,10b-octahydrobenzo[f]quinolin-3-one]
inhibition at 0.3 µM [1, 3]: 86%
inhibition at 0.3 µM [2, 4]: 11%

CN1C(=O)CC[C@]2(C)c3ccc(-c4cccc(NC(=O)C(C)(C)C)c4)cc3CC[C@@H]12 [Example 274, (+)-(4aR)-(10bR)-4-methyl-8-(3-[pivaloylamino]phenyl)-10b-methyl-1,2,3,4,4a,5,6,10b-octahydrobenzo[f]quinolin-3-one]
inhibition at 0.3 µM [1, 3]: 34%
inhibition at 0.3 µM [2, 4]: 32%

CN1C(=O)CC[C@]2(C)c3ccc(CCCc4ccccc4)cc3CC[C@@H]12 [Example 275, (+)-(4aR)-(10bR)-4-methyl-8-(3-phenylpropyl)-10b-methyl-1,2,3,4,4a,5,6,10b-octahydrobenzo[f]quinolin-3-one]
inhibition at 0.3 µM [1, 3]: 75%
inhibition at 0.3 µM [2, 4]: 44%

CN1C(=O)CC[C@]2(C)c3ccc(CCc4ccc5ccccc5c4)cc3CC[C@@H]12 [Example 276, (+)-(4aR)-(10bR)-4-methyl-8-(2-[2-naphthyl]ethyl)-10b-methyl-1,2,3,4,4a,5,6,10b-octahydrobenzo[f]quinolin-3-one]
inhibition at 0.3 µM [1, 3]: 92%
inhibition at 0.3 µM [2, 4]: 33%

CN1C(=O)CC[C@]2(C)c3ccc(CC(=O)Nc4ccccc4)cc3CC[C@@H]12 [Example 277, (4aR)-(10bR)-4,10b-dimethyl-8-phenylaminocarbonylmethyl-1,2,3,4,4a,5,6,10b-octahydrobenzo[f]quinolin-3-one]
inhibition at 0.3 µM [1, 3]: 42%
inhibition at 0.3 µM [2, 4]: 40%

CN1C(=O)CC[C@]2(C)c3ccc(/C=C/c4ccccc4)cc3CC[C@@H]12 [Example 279, (4aR)-(10bR)-4,10b-dimethyl-8-(2-phenylethenyl)-1,2,3,4,4a,5,6,10b-octahydrobenzo[f]quinolin-3-one]
inhibition at 0.3 µM [1, 5]: 85%
inhibition at 0.3 µM [2, 6]: 60%

CN1C(=O)CC[C@]2(C)c3ccc(CCc4ccccc4)cc3CC[C@@H]12 [Example 280, (4aR)-(10bR)-4,10b-dimethyl-8-(2-phenylethyl)-1,2,3,4,4a,5,6,10b-octahydrobenzo[f]quinolin-3-one]
percent inhibition of Type I AR [1, 7]: 100%
inhibition at 0.3 µM [1, 3]: 97%
inhibition at 0.3 µM [2, 4]: 33%

CN1C(=O)CC[C@]2(C)c3ccc(C#Cc4ccccc4)cc3CC[C@@H]12 [Example 284, (4aR)-(10bR)-4,10b-dimethyl-8-(2-phenylethynyl)-1,2,3,4,4a,5,6,10b-octahydrobenzo[f]quinolin-3-one]
inhibition at 0.3 µM [1, 5]: 86%
inhibition at 0.3 µM [2, 6]: 63%

CN1C(=O)CC[C@]2(C)c3ccc(/C=C\c4ccccc4)cc3CC[C@@H]12 [Example 285, (4aR)-(10bR)-4,10b-dimethyl-8-(2-phenylethenyl)-1,2,3,4,4a,5,6,10b-octahydrobenzo[f]quinolin-3-one]
inhibition at 0.3 µM [1, 5]: 93%
inhibition at 0.3 µM [2, 6]: 36%

CN1C(=O)CC[C@]2(C)c3ccc(C(=O)c4ccccc4)cc3CC[C@@H]12 [Example 286, (4aR)-(10bR)-8-benzoyl-4,10b-dimethyl-1,2,3,4,4a,5,6,10b-octahydrobenzo[f]quinolin-3-one]
inhibition at 0.3 µM [1, 3]: 53%
inhibition at 0.3 µM [2, 4]: 38%

CN1C(=O)CC[C@]2(C)c3ccc(Cc4ccccc4)cc3CC[C@@H]12 [Example 287, (4aR)-(10bR)-8-benzyl-4,10b-dimethyl-1,2,3,4,4a, 5,6, 10b-octahydrobenzo[f]quinolin-3-one]
inhibition at 0.3 µM [1, 3]: 82%
inhibition at 0.3 µM [2, 4]: 37%

CN1C(=O)CC[C@]2(C)c3ccc(C(=O)c4ccccc4Cl)cc3CC[C@@H]12 [Example 288, (4aR)-(10bR)-8-(2-chlorobenzoyl)-4,10b-dimethyl-1,2,3,4,4a,5,6,10b-octahydrobenzo[f]quinolin-3-one]
inhibition at 0.3 µM [1, 3]: 19%
inhibition at 0.3 µM [2, 4]: 12%

C[C@]12CCC(=O)N[C@@H]1CCc1cc(CSc3ccccc3)ccc12 [Example 289, (4aR)-(10bR)-8-phenylthiomethyl-10b-methyl-1,2,3,4,4a,5,6,10b-octahydrobenzo[f]quinolin-3-one]
inhibition at 0.3 µM [1, 3]: 23%
inhibition at 0.3 µM [2, 4]: 24%

C[C@]12CCC(=O)N[C@@H]1CCc1cc(CSc3nc4ccccc4s3)ccc12 [Example 290, (4aR)-(10bR)-8-(2-benzothiazolyl)thiomethyl-10b-methyl-1,2,3,4,4a,5,6,10b-octahydrobenzo[f]quinolin-3-one]
inhibition at 0.3 µM [1, 3]: 25%
inhibition at 0.3 µM [2, 4]: 8%

CN1C(=O)CC[C@]2(C)c3ccc(-c4cccc(CNC(c5ccccc5)c5ccccc5)c4)cc3CC[C@@H]12 [Example 292, (+)-(4aR)-(10bR)-4-methyl-8-(3-diphenylmethylaminomethylphenyl)-10b-methyl-1,2,3,4,4a,5,6,10b-octahydrobenzo[f]quinolin-3-one]
inhibition at 0.3 µM [1, 3]: 86%
inhibition at 0.3 µM [2, 4]: 11%

(+)-(4aR)-(10bR)-8-(3-isoquinolinyl)-10b-methyl-3,4,4a,5,6,10b-hexahydrobenzo[f]quinolin-3-one [Example 142]
percent inhibition of Type I AR [1, 7]: 22%
percent inhibition of Type II AR ([2]; 0.3 μM, sodium acetate pH 5.5, 25°, 30 min, compared to control reaction mixtures): 40%
